Source: US20250041194A1, “COMPOSITION COMPRISING GALACTINOL AND USE THEREOF” (Clariant International Ltd, priority 2021, published 2025)

Experiments:
[1] = test system: normal human dermal fibroblasts (NHDF); assay: Transcriptomic study, mRNA expression by RT-qPCR (Taqman); assay type: cell-based; conditions: 24 h treatment, vs untreated
Procedure: The mRNA expression was quantified after 24 h of NHDF treatment with both Gal and C-Gal.
mRNA extraction was realized according to the provider recommendations (Qiagen). Briefly, lysis buffer RLT-Plus was added on the cell pellet and the homogenous lysate was transferred in a column. The eluate was mixed with one volume 70° ethanol and was transferred in a pink <<RNeasy>> column. The column was washed with buffer. Elution was realized with RNase-free water and the RNA quantitation was done by D.O. 260 nm, 280 nm, 320 nm measurements (Biotek, Cytation3 & Take3 Plate) with “Nucleic Acid Quantification” software application. mRNA quality was checked using a fragment analyser (Advanced Analytical). Then, mRNA reverse transcription allowing the obtention of cDNA templates was performed on a thermal cycler (Bio-Rad). cDNA templates were used to perform the qPCR. For the transcriptomic study, it was used Biorad predesigned plates for ECM components, antioxidants genes, skin homeostasis. Then, the data generated allowed the automatic calculation using Bio-Rad CFX manager of mRNA expression fold change and p values in comparison to untreated condition.
All data are statistically significant compared to control condition (p value <0.05).

NHEK [2] = assay: Cell protection against UVB irradiation, bright-field cell morphology observation; assay type: cell-based, human; conditions: UVB 30 mJ/cm^2, preventive/curative/combined, observed after 24 hours, data not shown
Procedure: (§1) In the following studies, the capabilities of Gal and C-Gal to protect skin cells (NHEK and NHDF) against various stress agents such as UV irradiations (UVB and UVA), or environmental factors (humidity and temperature) were assessed.
Briefly, using a bright-field imaging microscope, it was studied the effect of the UVB irradiation on NHEK's morphology in various experimental conditions in presence or not of Gal and C-Gal: • “Preventive” condition: Gal or C-Gal was applied on NHEK during 24 hours before UVB irradiation (30 mJ/cm^2), and the morphology of the cells was observed after 24 hours, • “Curative” condition: Gal or C-Gal was applied after UVB irradiation, and the morphology of the cells was observed after 24 hours, • Combined condition “preventive and curative”: Gal or C-Gal was applied before and after UVB irradiation and the morphology of the cells was observed after 24 hours.

NHDF = assay: Cell protection against UVA irradiation, bright-field cell morphology observation; assay type: cell-based, human; conditions: UVA 10 J/cm^2, curative, observed after 24 hours, data not shown
Procedure: as §1
The same experiments as described above were repeated by using UVA irradiation on NHDF in the following condition: • “Curative” condition: Gal or C-Gal was applied after UVA irradiation (10 J/cm^2), and the morphology of the cells were observed after 24 hours.

NHEK [3] = assay: Cell protection against environmental stress (heat, hydric), bright-field cell morphology observation; assay type: cell-based, human; conditions: heat stress 37 to 44° C. 30 min, hydric stress 90% to 45% relative humidity, or both, data not shown
Procedure: as §1
Finally, the effect of environmental stress on cell morphology was studied in NHEK treated with and without Gal or C-Gal (using a bright-field imaging microscope). The environmental stress applied were either a heat stress (increase in temperature from 37° C. to 44° C. during 30 min), or an hydric stress “modulation of relative humidity from 90% to 45%” or a combination of both stresses “heat plus hydric stresses”.

HSP27 = HSP27 protein expression by immunostaining; assay type: cell-based, human; conditions: NHDF, 24 h treatment, basal (non stressed) condition; FIG. 5
Procedure: NHDF were treated with Gal or C-Gal for 24 h (treated cells). […] Pictures were realized with a Nikon microscope (Eclipse Ti2). The quantification of HSP27 was measured by image analysis of fluorescence intensity per cell using Image J software. The statistical analysis (Dunnett) was realized with Minitab software (*p<0.05 compared to control). Results were obtained by performing three independent assays.

OC[C@H]1O[C@H](O[C@@H]2[C@@H](O)[C@H](O)[C@@H](O)[C@H](O)[C@@H]2O)[C@H](O)[C@@H](O)[C@H]1O [Gal, 3-O-α-D-galactopyranosyl-D-myo-inositol]
ECM genes and proteins expressions (COL5A1, ELN, SDC4, VCAN, LAMC2, LUM, ITGA1) ([1]; p value <0.05, FIG. 2): modulation
antioxidant genes expression (NQO1, HMOX1, GPX1, G6PD) ([1]; p value <0.05, FIG. 3): modulated
growth factors gene expression (TGF Beta 1 and NGF) ([1]; p value <0.05, FIG. 4): upregulation
heat shock proteins gene expression (HSPA1A and HSP90AA) ([1]; p value <0.05, FIG. 4): upregulation
mRNA expressions of PCNA, MKi67 and GADD45A (DNA repair and cell proliferation) ([1]; p value <0.05, FIG. 4): upregulation
cell morphology (NHEK [2]): quite regular and expected cells morphology
cell number vs stress condition alone (NHEK [2]): more cells are present
cell morphology (NHDF): quite regular and expected cells morphology
cell number vs stress condition alone (NHDF): more cells are present
cell morphology (NHEK [3]): quite regular and expected cells morphology
HSP27 expression (fluorescence intensity per cell) (HSP27): clear stimulation
